From PubChem BioAssay (NCI) come the findings set out here.

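Dose response: 5 concentrations. Exposure: 48 h. Format: 96-well plates. Endpoint: linear interpolation; highest concentration if not reached. TGI is the concentration that stops growth completely.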

Among the test systems are UACC-257 melanoma; OVCAR-4 ovarian; SNB-75 CNS; A549 NSCLC; MDA-MB-435; COLO 205 colon; MDA-MB-231 breast; SW-620 colon; MOLT-4 leukemia; MDA-N; SK-MEL-2 melanoma; EKVX NSCLC; HS 578T breast; DU-145 prostate; HCT-15 colon; TK-10 renal.
Assay in all cases: DTP human tumour cell line panel, 48 h

Regarding `CC1CCC2C(C(=O)O[C@H]3C4C=CO[C@@H](OC5OC(CO)C(O)C(O)C5O)C4[C@@]4(CO)O[C@@H]34)=CO[C@@H](OC3OC(CO)C(O)C(O)C3O)C12` (some centres undefined), the TGI in the assay with UACC-257 melanoma, in the assay on OVCAR-4 ovarian, in the assay on SNB-75 CNS, in the assay on A549 NSCLC, in the assay on MDA-MB-435 and with COLO 205 colon was greater than 10 µM each time. Besides, the concentration for total growth inhibition (TGI) in the assay on MDA-MB-231 breast, in the assay with SW-620 colon, in the assay with MOLT-4 leukemia, with MDA-N, in the assay with SK-MEL-2 melanoma and with EKVX NSCLC was greater than 10 µM each time. Moreover, the TGI in the assay on HS 578T breast, in the assay on DU-145 prostate, in the assay with HCT-15 colon and with TK-10 renal was greater than 10 µM throughout.

As for `CC1=NN(c2ccccc2Cl)C2(C1)C(Cl)C(=O)N2c1nc2ccccc2s1` (centres undefined), the TGI in the assay with UACC-257 melanoma is greater than 100 µM; in the assay on OVCAR-4 ovarian, greater than 100 µM; in the assay with SNB-75 CNS, 89.9 µM; in the assay with A549 NSCLC it was greater than 100 µM; in the assay on MDA-MB-435, greater than 100 µM; in the assay with COLO 205 colon, greater than 100 µM. Further, the total growth inhibition concentration (TGI) is greater than 100 µM in the assay on MDA-MB-231 breast; greater than 100 µM in the assay with SW-620 colon; 91.6 µM in the assay with MOLT-4 leukemia; greater than 100 µM with MDA-N; greater than 100 µM with SK-MEL-2 melanoma; greater than 100 µM with EKVX NSCLC. The concentration for total growth inhibition (TGI) with HS 578T breast, with DU-145 prostate, in the assay with HCT-15 colon and in the assay with TK-10 renal was greater than 100 µM each time.

As for `COC(=O)C1=CCC[C@H]2[C@@]1(COC(C)=O)CC[C@@H](C)[C@]2(C)CC(=O)c1ccoc1`, the concentration for total growth inhibition (TGI) in the assay on UACC-257 melanoma was greater than 50 µM; in the assay with OVCAR-4 ovarian, greater than 50 µM; with SNB-75 CNS, greater than 50 µM; in the assay on A549 NSCLC, greater than 50 µM; in the assay with MDA-MB-435 it was greater than 50 µM; in the assay with COLO 205 colon, 27.3 µM. In addition, the TGI was greater than 50 µM with MDA-MB-231 breast; greater than 50 µM in the assay on SW-620 colon; 31.8 µM in the assay on MOLT-4 leukemia; greater than 50 µM with MDA-N; greater than 50 µM with SK-MEL-2 melanoma; greater than 50 µM with EKVX NSCLC. For the same compound, the TGI was greater than 50 µM in the assay with HS 578T breast, greater than 50 µM with DU-145 prostate, 49.5 µM in the assay with HCT-15 colon and greater than 50 µM in the assay with TK-10 renal.

Take `N#Cc1ccc(N=NN2CCCC2)cc1`: the TGI in the assay with UACC-257 melanoma, in the assay with OVCAR-4 ovarian, in the assay with SNB-75 CNS, in the assay on MDA-MB-435, with COLO 205 colon and in the assay with MDA-MB-231 breast was greater than 100 µM throughout. The TGI with SW-620 colon, with MOLT-4 leukemia, with MDA-N, in the assay on SK-MEL-2 melanoma, in the assay with EKVX NSCLC and in the assay with HS 578T breast was greater than 100 µM throughout. Also, the TGI in the assay on DU-145 prostate, in the assay with HCT-15 colon and with TK-10 renal was greater than 100 µM throughout.

Turning to `ON[C@@H]1C=C[C@H](n2cnc3c(NC4CC4)ncnc32)C1`, the TGI in the assay with UACC-257 melanoma, with OVCAR-4 ovarian, in the assay with SNB-75 CNS, in the assay with A549 NSCLC, in the assay with MDA-MB-435 and with COLO 205 colon was greater than 100 µM throughout. The TGI in the assay on MDA-MB-231 breast, with SW-620 colon, in the assay on MOLT-4 leukemia, in the assay with MDA-N, in the assay on SK-MEL-2 melanoma and in the assay on EKVX NSCLC was greater than 100 µM in each case. Besides, the TGI in the assay with HS 578T breast, in the assay on DU-145 prostate, in the assay on HCT-15 colon and with TK-10 renal was greater than 100 µM in each case.

Take `C1=C(c2ccccc2)NC2=N[C@H]3CCCC[C@@H]3N2C1c1ccccc1` (some centres undefined): the TGI amounted to 27.7 µM in the assay on UACC-257 melanoma; 22.2 µM in the assay on OVCAR-4 ovarian; 24.3 µM in the assay on SNB-75 CNS; 26.4 µM in the assay with MDA-MB-435; 25.2 µM in the assay with COLO 205 colon; 30.2 µM in the assay with MDA-MB-231 breast. For the same compound, the TGI in the assay with SW-620 colon is 26 µM; with MOLT-4 leukemia, 28.3 µM; in the assay on MDA-N it was 29 µM; with SK-MEL-2 melanoma it was 32 µM; in the assay with EKVX NSCLC, 29.3 µM; with HS 578T breast, 41.2 µM. In addition, the TGI was 29.6 µM in the assay with DU-145 prostate, 23.5 µM with HCT-15 colon and 22.1 µM with TK-10 renal.

For `COc1ccc(-c2c(C#N)c(N)nc(Sc3ccccc3N)c2C#N)cc1`, the TGI is greater than 100 µM in the assay on UACC-257 melanoma; greater than 100 µM with OVCAR-4 ovarian; greater than 100 µM in the assay with A549 NSCLC; greater than 100 µM in the assay with MDA-MB-435; greater than 100 µM in the assay with COLO 205 colon; 48.2 µM in the assay with MDA-MB-231 breast. Also, the TGI is greater than 100 µM with SW-620 colon; greater than 100 µM in the assay on MOLT-4 leukemia; greater than 100 µM in the assay on MDA-N; 39.7 µM with SK-MEL-2 melanoma; greater than 100 µM in the assay on EKVX NSCLC; 45.3 µM with HS 578T breast. In addition, the TGI in the assay with DU-145 prostate is greater than 100 µM; with HCT-15 colon it was greater than 100 µM; in the assay on TK-10 renal it was 46 µM.

On to `COc1ccc(-n2c(C)nc3ccc(NC4OCC(OC(C)=O)C(OC(C)=O)C4OC(C)=O)cc3c2=O)cc1` (centres undefined), for which the TGI with UACC-257 melanoma, with OVCAR-4 ovarian, in the assay with SNB-75 CNS, in the assay with MDA-MB-435, with COLO 205 colon and in the assay on MDA-MB-231 breast was greater than 100 µM each time. In addition, the concentration for total growth inhibition (TGI) with SW-620 colon, with MOLT-4 leukemia, in the assay on MDA-N, in the assay on SK-MEL-2 melanoma, in the assay with EKVX NSCLC and in the assay with HS 578T breast was greater than 100 µM each time. Further, the TGI in the assay on DU-145 prostate, in the assay with HCT-15 colon and with TK-10 renal was greater than 100 µM in each case.

Usually TGI stands for the concentration giving total growth inhibition.
